How the values were obtained:
[1] = Effect of food on pharmacokinetics of the solution; format: in vivo
[2] = Phase 2a INTEGRIS-PSC: plasma concentrations (total and unbound); format: in vivo, human; conditions: 40, 80, 160 mg once daily, 12 weeks
Excerpt: The pharmacokinetic, pharmacodynamic, and pharmacogenomic assessments included the following: • a) PK: plasma samples for PK analysis (total and unbound(S)-4-((2-methoxyethyl)(4-(5,6,7,8-tetrahydro-1,8-naphthyridin-2-yl)butyl)amino)-2-(quinazolin-4-ylamino)butanoic acid concentrations) were obtained. • b) Biomarkers: plasma, serum (Parts 1, 2, and 3), and urine (Parts 1 and 2) samples were obtained. • c) Pharmacogenomics: a whole blood sample for deoxyribonucleic acid (DNA) isolation was collected before dosing on Day 1 from each subject in the study.
Blood samples for determination of plasma concentrations of (S)-4-((2-methoxyethyl)(4-(5,6,7,8-tetrahydro-1,8-naphthyridin-2-yl)butyl)amino)-2-(quinazolin-4-ylamino)butanoic acid are obtained before and at least 2 hours after administration of (S)-4-((2-methoxyethyl)(4-(5,6,7,8-tetrahydro-1,8-naphthyridin-2-yl)butyl)amino)-2-(quinazolin-4-ylamino)butanoic acid on Day 1, at Weeks 4 and 12(Parts 1, 2, and 3), Week 24 (Part 3 only), and at early termination (if possible, for any subject who prematurely discontinues from the study). The actual time dosing and the actual time of blood collection is recorded. […]

[3] = test system: subjects with PSC and suspected liver fibrosis; experiment: Phase 2a INTEGRIS-PSC: transient elastography (FibroScan) liver stiffness; format: in vivo, human; conditions: 320 mg, Week 24, compared to an increase on placebo, Example B-5
Excerpt: Transient elastography (TE) utilizes an ultrasound shear wave to assess the elasticity of the liver, that is, how “stiff” the liver tissue is. Fibrosis causes stiffening or hardening of tissue, and TE can be used to diagnose fibrosis and determine the degree of fibrosis. The FibroScan® device (FibroScan® is a registered trademark of ECHOSENS, Paris, France, for medical equipment and software) can be used for TE. (Kemp W, Roberts S., Aust Fam Physician. 2013 July; 42(7):468-71; and Ozturk A. et al., Abdom Radiol (NY), 2022 September; 47 (9): 3037-3050; each of which are hereby incorporated by reference in their entireties).
Each subject underwent an ultrasound-based transient elastography (FibroScan®) assessment at the screening and Week 12 study visits (Parts 1 and 2) and will undergo an ultrasound-based transient elastography (FibroScan®) assessment at the screening, at Week 12 study visits, and at Week 24 (Part 3 only). FibroScan® is a noninvasive technique that uses ultrasound-based transient elastography (TE) to assess liver stiffness measurement (LSM) and determine likelihood of clinically meaningful liver fibrosis.
The LSM, as assessed by TE, is expressed in kilopascals (kPa). Larger values (normal range approximately between 2 and 7 kPa) indicate a greater likelihood of clinically meaningful liver fibrosis. See H. Ehlken, et al. (2016) PloS ONE 11 (10): e0164224 and C. […]

COCCN(CCCCc1ccc2c(n1)NCCC2)CC[C@H](Nc1ncnc2ccccc12)C(=O)O [Bexotegrast, (S)-4-((2-methoxyethyl)(4-(5,6,7,8-tetrahydro-1,8-naphthyridin-2-yl)butyl)amino)-2-(quinazolin-4-ylamino)butanoic acid]
decrease of AUCinf in the fed state relative to the fasted state [1]: 37%
decrease of Cmax in the fed state relative to the fasted state [1]: 52%
total and unbound plasma concentrations vs dose [2]: increased with dose
median liver stiffness by transient elastography (TE) [3]: numerical reduction
median liver stiffness by transient elastography (TE) ([3]; listed as bexotegrast): decrease

— patent US20250120975A1, “INTEGRIN INHIBITORS FOR TREATMENT OF PRIMARY SCLEROSING CHOLANGITIS” (Pliant Therapeutics, Inc., priority 2023, published 2025)
